Experimental data published in patent US20260226084A1, “DUAL RAF AND TUBULIN INHIBITORS AND METHODS OF USE THEREOF” (Deciphera Pharmaceuticals, LLC, priority 2023, published 2026).

What was measured:
[1] = molecular target: T1, B-Raf kinase (SEQ ID NO: 1) (Homo sapiens, UniProt P15056); experiment: Biochemical Assay for B-Raf (coupled pyruvate kinase/lactate dehydrogenase assay); conditions: 1 mM ATP; read-out: BRAF (inhibition of biochemical activity, IC50)
T1 construct: GST (N); purchased Sigma

[2] = molecular target: T2, C-Raf kinase (SEQ ID NO: 2) (Homo sapiens, UniProt P04049, Y340D/Y341D); experiment: Biochemical Assay for C-Raf (coupled pyruvate kinase/lactate dehydrogenase assay); conditions: 1 mM ATP; read-out: CRAF (inhibition of biochemical activity, IC50)
T2 construct: C-Raf residues 306-end; Y340D, Y341D with; GST (N); purchased Sigma

Pa16c cells = experiment: Pa16c Cell Proliferation Assay; type: cell-based; conditions: Table 2, read-out: Inhibition of cell proliferation in Pa16c (IC50 class)
Procedure: Pa16c cells are obtained from Dr. Channing Der, University of North Carolina at Chapel Hill. Briefly, cells are grown in Dulbecco's Modified Eagle Medium supplemented with 10% characterized fetal bovine serum (Invitrogen, Carlsbad, CA) and 1% Penicillin/Streptomycin/L-Glutamine at 37° C., 5% CO2, and 95% humidity. Cells are expanded until reaching 70-95% confluency at which point they are sub-cultured or harvested for assay use. A serial dilution of test compound is dispensed into a 384-well black clear bottom plate in triplicate. 750 cells are added per well in 50 μL complete growth medium in the 384-well plate. Plates are incubated for 67 to 72 h at 37° C., 5% CO2, and 95% humidity. At the end of the incubation, 40 μL of a 440 μM solution of resazurin (Sigma, St. Louis, MO) in PBS is added to each well of the plate and plates are incubated for an additional 18 to 24 hours at 37° C., 5% CO2, and 95% humidity. Plates are read on a Synergy2 or equivalent reader (Biotek, Winooski, VT) using an excitation of 540 nm and an emission of 600 nm. Data is analyzed using Prism software (Graphpad, San Diego, CA) to calculate IC50 values.

MiaPaca-2 cells = experiment: MiaPaca-2 Cell Proliferation Assay; type: cell-based; conditions: Homo sapiens, MIA PaCa-2, MiaPaca-2 cells; Table 2; read-out: Inhibition of cell proliferation in MiaPaca-2 (IC50 class)
Procedure: Miapaca-2 cells (catalog #CRL-1420) are obtained from the American Type Culture Collect (ATTC, Manassas, VA). Briefly, cells were grown in DMVEM supplemented with 10 characterized fetal bovine serum (Invitrogen, Carlsbad, CA), 2.5% New Zealand sourced horse serum and 1 Penicillin/Streptomycin/L-Glutamine at 37° C., 5 CO2, and 95% humidity. Cells are expanded until reaching 70-95% confluency at which point they are sub-cultured or harvested for assay use. A serial dilution of test compound is dispensed into a 96-well black clear bottom plate in triplicate. Three thousand cells are added per well in 200 μL complete growth medium in the 96-well plate. Plates are incubated for 67 to 72 h at 37° C., 5% CO2, and 95% humidity. At the end of the incubation, 40 μL of a 440 μM solution of resazurin (Sigma, St. Louis, MO) in PBS is added to each well of the plate and plates are incubated for an additional 5 to 6 h at 37° C., 5% CO2, and 95% humidity. Plates are read on a Synergy2 or equivalent reader (Biotek, Winooski VT) using an excitation of 540 nm and an emission of 600 nm. Data is analyzed using Prism software (Graphpad, San Diego, CA) to calculate IC50 values.

HCT-116 cells = experiment: HCT-116 Cell Proliferation Assay; type: cell-based; conditions: Homo sapiens, HCT-116, HCT-116 cells; Table 2; read-out: Inhibition of cell proliferation in HCT-116 (IC50 class)
Procedure: HCT-116 cells (catalog #CCL-247) are obtained from the American Type Culture Collect (ATCC, Manassas, VA). Briefly, cells are grown in McCoy's 5A supplemented with 10% characterized fetal bovine serum (Invitrogen, Carlsbad, CA) and 1% Penicillin/Streptomycin/L-Glutamine at 37° C., 5% CO2, and 95% humidity. Cells are expanded until reaching 70-95% confluency at which point they are subcultured or harvested for assay use. A serial dilution of test compound is dispensed into a 384-well black clear bottom plate in triplicate. 375 cells are added per well in 50 μL complete growth medium in the 384-well plate. Plates are incubated for 67 to 72 hours at 37° C., 5% CO2, and 95% humidity. At the end of the incubation, 40 μL of a […] solution of resazurin (Sigma, St. Louis, MO) in PBS is added to each well of the plate and plates are incubated for an additional 4 to 5 h at 37° C., 5% CO2, and 95% humidity. Plates are read on a Synergy2 or equivalent reader (Biotek, Winooski, VT) using an excitation of 540 nm and an emission of 600 nm. Data is analyzed using Prism software (Graphpad, San Diego, CA) to calculate IC50 values.

HPAF-II cells = experiment: HPAF-II Cell Proliferation Assay; type: cell-based; conditions: Homo sapiens, HPAF-II, HPAF-II cells; Table 2; read-out: Inhibition of cell proliferation in HPAF-II (IC50 class)
Procedure: HPAF-II cells (catalog #CRL-1997) are obtained from the American Type Culture Collect (ATCC, Manassas, VA). Briefly, cells are grown in Minimum Essential Media supplemented with 10% characterized fetal bovine serum (Invitrogen, Carlsbad, CA) and 1% Penicillin/Streptomycin/L-Glutamine at 37° C., 5% CO2, and 95% humidity. Cells are expanded until reaching 70-95% confluency at which point they are sub-cultured or harvested for assay use. A serial dilution of test compound is dispensed into a 384-well black clear bottom plate in triplicate. 750 cells are added per well in 50 μL complete growth medium in the 384-well plate. Plates are incubated for 115 to 120 hours at 37° C., 5% CO2, and 95% humidity. At the end of the incubation, 40 μL of a 440 μM solution of resazurin (Sigma, St. Louis, MO) in PBS is added to each well of the plate and plates are incubated for an additional 18 to 24 hours at 37° C., 5% CO2, and 95% humidity. Plates are read on a Synergy2 or equivalent reader (Biotek, Winooski, VT) using an excitation of 540 nm and an emission of 600 nm. Data is analyzed using Prism software (Graphpad, San Diego, CA) to calculate IC50 values.

T1 sequence (P15056 416-766): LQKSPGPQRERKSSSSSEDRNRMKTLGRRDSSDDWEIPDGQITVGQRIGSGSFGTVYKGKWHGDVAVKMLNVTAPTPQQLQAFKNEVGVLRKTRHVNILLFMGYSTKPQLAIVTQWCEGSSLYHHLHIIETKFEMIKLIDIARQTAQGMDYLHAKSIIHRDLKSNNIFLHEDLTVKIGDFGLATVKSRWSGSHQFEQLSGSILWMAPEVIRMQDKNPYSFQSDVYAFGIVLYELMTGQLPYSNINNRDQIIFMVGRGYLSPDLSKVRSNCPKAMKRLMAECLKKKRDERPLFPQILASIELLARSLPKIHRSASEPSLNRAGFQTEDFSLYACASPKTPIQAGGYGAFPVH
T2 sequence (P04049 307-648 Y340D/Y341D): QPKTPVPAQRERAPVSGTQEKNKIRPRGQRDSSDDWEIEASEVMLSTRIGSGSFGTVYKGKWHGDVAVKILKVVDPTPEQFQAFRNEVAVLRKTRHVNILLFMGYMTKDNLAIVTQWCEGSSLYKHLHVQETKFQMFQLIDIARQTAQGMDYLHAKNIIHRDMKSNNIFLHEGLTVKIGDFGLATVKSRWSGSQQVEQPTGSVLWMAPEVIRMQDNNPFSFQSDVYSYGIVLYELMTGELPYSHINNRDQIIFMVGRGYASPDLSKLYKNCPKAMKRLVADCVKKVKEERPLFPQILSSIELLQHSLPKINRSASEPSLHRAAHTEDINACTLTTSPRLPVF

| Compound | IC50 [1] | IC50 [2] | IC50 (Pa16c cells) | IC50 (MiaPaca-2 cells) | IC50 (HCT-116 cells) | IC50 (HPAF-II cells) |
| --- | --- | --- | --- | --- | --- | --- |
| Cc1ccc(NC(=O)c2cncc(C(C)(C)F)c2)cc1-c1cncc(-c2cc(NC(=O)C3CC3)ncn2)c1 [Example 68] | < 100 nM | < 100 nM | 500 to 1000 nM | 100 to 500 nM | < 100 nM | < 100 nM |
| Cc1ccc(NC(=O)c2ccc(C(F)F)nc2)cc1-c1ccnc(-c2ccnc(NC(=O)C3CC3)c2)n1 [Example 70] | < 100 nM | < 100 nM | 1000 to 10000 nM | 100 to 500 nM | 100 to 500 nM | 100 to 500 nM |
| Cc1ccc(NC(=O)c2cc(N)cnn2)cc1-c1ccnc(-c2ccnc(NC(=O)C3CC3)c2)c1 [Example 99] | 500 to 1000 nM | 100 to 500 nM | 1000 to 10000 nM | 1000 to 10000 nM | 1000 to 10000 nM | 1000 to 10000 nM |
| Cc1ccc(NC(=O)c2cc(Br)cnn2)cc1-c1ccnc(-c2ccnc(NC(=O)C3CC3)c2)c1 [Example 130] | < 100 nM | < 100 nM | 500 to 1000 nM | 100 to 500 nM | 500 to 1000 nM | 1000 to 10000 nM |
| Cc1ccc(NC(=O)c2cc(C3CC3)cnn2)cc1-c1cc(NCCO)nc(-c2ccnc(NC(=O)C3CC3)c2)n1 [Example 103] | < 100 nM | < 100 nM | 1000 to 10000 nM | 500 to 1000 nM | < 100 nM | 500 to 1000 nM |
| Cc1ccc(NC(=O)c2cc(C(F)(F)F)cnn2)cc1-c1ccnc(-c2ccnc(NC(C)C)c2)c1 [Example 54] | 1000 to 10000 nM | 1000 to 10000 nM | 100 to 500 nM | 100 to 500 nM | 100 to 500 nM | 100 to 500 nM |
| Cc1ccc(NC(=O)c2cc(C(C)(F)F)cnn2)cc1-c1ccnc(-c2cnn(C)n2)c1 [Example 140] | 100 to 500 nM | < 100 nM | 1000 to 10000 nM | 100 to 500 nM | 100 to 500 nM | 500 to 1000 nM |
| Cc1ccc(NC(=O)c2cncc(C(C)(F)F)c2)cc1-c1ccnc(-c2ccnc(NC(=O)C3CC3)c2)c1 [Example 82] | < 100 nM | < 100 nM | 1000 to 10000 nM | 500 to 1000 nM | 100 to 500 nM | 500 to 1000 nM |
| Cc1ccc(NC(=O)c2cc(C3CC3)cnn2)cc1-c1cc(NCCO)nc(-c2ccnc(NC(=O)C3CC3)c2)c1 [Example 100] | < 100 nM | < 100 nM | < 100 nM | 100 to 500 nM | < 100 nM | 100 to 500 nM |
| Cc1ccc(NC(=O)c2cc(C3CC3)cnn2)cc1-c1cncc(-c2cc(NC(=O)C3CC3)ncn2)c1 [Example 69] | < 100 nM | < 100 nM | 1000 to 10000 nM | 1000 to 10000 nM | 100 to 500 nM | 500 to 1000 nM |
| Cc1ccc(NC(=O)c2cc(C(F)(F)F)cnn2)cc1-c1ccnc(-c2cscn2)c1 [Example 142] | 500 to 1000 nM | 500 to 1000 nM | 100 to 500 nM | 500 to 1000 nM | 100 to 500 nM | 100 to 500 nM |
| CC(=O)Nc1cc(-c2cncc(-c3cc(NC(=O)c4ccc(C(F)F)nc4)ccc3C)n2)ccn1 [Example 26] | 100 to 500 nM | 100 to 500 nM | 500 to 1000 nM | 100 to 500 nM | 100 to 500 nM | 500 to 1000 nM |
| Cc1ccc(NC(=O)c2cc(C(F)(F)F)cnn2)cc1-c1ccnc(-c2ccsc2)c1 [Example 146] | 1000 to 10000 nM | 1000 to 10000 nM | < 100 nM | < 100 nM | < 100 nM | < 100 nM |
| Cc1ccc(NC(=O)c2cc(C(F)(F)F)cnn2)cc1-c1cc(NCCO)nc(-c2ccnc(NC(=O)C3CC3)c2)c1 [Example 113] | < 100 nM | < 100 nM | < 100 nM | < 100 nM | < 100 nM | < 100 nM |
| Cc1ccc(NC(=O)c2cncc(C(F)(F)F)n2)cc1-c1ccnc(-c2ccnc(NC(=O)C3CC3)c2)c1 [Example 84] | < 100 nM | < 100 nM | 1000 to 10000 nM | 1000 to 10000 nM | 1000 to 10000 nM | 1000 to 10000 nM |
| Cc1ccc(NC(=O)c2cc(C3CCC3)cnn2)cc1-c1ccnc(-c2ccnc(NC(=O)C3CC3)c2)c1 [Example 44] | < 100 nM | < 100 nM | < 100 nM | < 100 nM | < 100 nM | 100 to 500 nM |
| Cc1ccc(NC(=O)c2cc(C3CC3)cnn2)cc1-c1cc(N[C@H](C)CO)nc(-c2cn[nH]c2)c1 [Example 117] | < 100 nM | < 100 nM | < 100 nM | < 100 nM | < 100 nM | < 100 nM |
| Cc1ccc(NC(=O)c2cc(C(F)(F)F)cnn2)cc1-c1ccnc(-c2ccnc(NC(=O)CC3CC3)c2)c1 [Example 22] | 100 to 500 nM | < 100 nM | < 100 nM | 100 to 500 nM | 100 to 500 nM | < 100 nM |
| Cc1cc(-c2cc(NC(=O)c3cc(C(F)(F)F)cnn3)ccc2C)cc(-c2ccnc(NC(=O)C3CC3)c2)n1 [Example 18] | < 100 nM | < 100 nM | 100 to 500 nM | 100 to 500 nM | 100 to 500 nM | 100 to 500 nM |
| Cc1ccc(NC(=O)c2cc(C(F)(F)F)cnn2)cc1-c1cc(OCCO)nc(-c2ccnc(NC(=O)C3CC3)c2)c1 [Example 131] | < 100 nM | < 100 nM | 100 to 500 nM | 100 to 500 nM | < 100 nM | 100 to 500 nM |
| Cc1ccc(NC(=O)c2cc(C(F)(F)F)cnn2)cc1-c1cccc(-c2cc(NC(=O)C3CC3)ncn2)c1 [Example 11] | < 100 nM | < 100 nM | 1000 to 10000 nM | 500 to 1000 nM | 100 to 500 nM | 500 to 1000 nM |
